Assay results as given in PMC10460844, “Real‐Time Monitoring of Multitarget Antimicrobial Mechanisms of Peptoids Using Label‐Free Imaging with Optical Diffraction Tomography” (Advanced Science, 2023).
In brackets after ≈: the same amount, converted by molar mass. Like-named read-outs stand apart in the source and are kept apart here. Square brackets hold non-standard residues; d marks the D form. Peptide text beside a SMILES is read from it. Gly(N(CH2)2(3-indolyl)) = O=C(O)CNCCc1c[nH]c2ccccc12; Nspe = C[C@H](NCC(=O)O)c1ccccc1; Nlys = NCCCCNCC(=O)O

What was measured:
E. coli ATCC 25922 = experiment: Thioflavin S fluorescence imaging of intracellular aggregation; assay type: cell-based; conditions: 29 and peptoid 1 at 4 × MIC, control peptides 2 × MIC
[1] = S9 fraction stability assay; assay type: in vitro ADME; conditions: NADPH, 100 mM Tris-HCl pH 7.4, […] MgCl2, 37 °C, 24 h incubation, HPLC or LC-MS, compared to pexiganan
Description: 200 μL NPN dye was added to wells of a 96 well plate to produce a final concentration of 10 μM, and the background fluorescence was recorded (λex = 350 nm, λem = 420 nm). Aliquots of peptoids were added to the well, and fluorescence was recorded as a function of time until there was no further increase in fluorescence. Increases of the permeability of the outer membrane after the addition of peptoids was reflected by increased fluorescence values as a result of NPN incorporation into the membrane.
The permeability of the inner membrane was determined using E. coli ML-35 cells […]
The intact bacterial inner membrane is non-permeable to o-nitrophenyl-β-D-galactopyranoside (OPNG), a chromogenic substrate of the β-galactosidase.
Following damage to the inner membrane, OPNG enters the cells and is metabolized by β-galactosidase creating a chromogenic […]. […] The hydrolysis of ONPG and generation of o-nitrophenol over time were monitored as absorbance change at 405 nm following the addition of peptoids.
The resistance of peptoids against metabolic enzyme degradation was measured by an S9 fraction assay. […] Quenched samples were centrifuged for 5 minutes at 1200 rpm and analyzed by analytical HPLC or LC-MS.
Protein extraction and quantification using Bradford assay […]

E. faecalis KCTC 3511 = assay type: cell-based
E. faecium KCTC 13225 = assay type: cell-based
S. typhimurium SL 1344 = assay type: cell-based
[2] = test system: MRC-5 human lung fibroblast cells; assay type: cell-based
Description: 4. Cell culture and cytotoxicity test using MTS assay
(Seoul, South Korea), human keratinocytes (HaCaT) were provided by the Skin Research Institute R&D Center of Amore Pacific Company (Yongin, South Korea). All cells were grown in Dulbecco's modified Eagle’s medium (DMEM) supplemented with 10% fetal bovine serum at 37 °C in an atmosphere containing 5% CO2. The 3-(4,5-dimethylthiazol-2- […]
assays were used to determine the effects of peptoids on cell growth.[4] Aliquots (100 µL) of media containing 1.3×10^4 MRC-5 cells/mL or 3×10^4 HaCaT cells/mL were distributed into each well of a 96-well plate (Eppendorf, Hamburg, Germany). The cells were allowed to attach and were grown in a humidified atmosphere containing 5% CO2 at 37 °C for 24 h.
When the cell density reached approximately 70% confluency, the medium was replaced with serial dilutions of the peptoid stock in DMEM and incubated for an additional 24 h. At this point, 20 µL of the CellTiter 96 aqueous non-radioactive cell proliferation assay reagent (Promega, Madison, WI, USA), which contains the tetrazolium compound, was added to each well. Plates were incubated for 4 h at 37 °C to allow time for metabolism. The MTS-formazan products in viable cells were measured at 490 nm using a microplate reader, and the percentage of cell viability (%) was calculated by comparing readings to the values of untreated wells. Percentage values of cell viability were calculated as A/(A control)×100, where A is the absorbance of the test well and A control is the average absorbance of wells containing untreated cells. […]

S. aureus MRSA C623 = assay type: cell-based
E. coli ESBL 63103 = assay type: cell-based
K. pneumonia ESBL 61962 = assay type: cell-based
[3] = SAXS of peptoid self-assembly in aqueous environment; assay type: physicochemical; conditions: for self-assembly state in aqueous solution: aqueous environment
Description: Prior to the experiment, peptoids were dissolved in Tris buffer (50 mM, pH 7.4). This peptoid stock solution (5 mg mL^−1) was diluted as needed. Unilamellar lipid vesicles were prepared using synthetic DMPC, DMPG, and DMPE‐PEG at a 75:22.5:2.5 molar ratio. The lipids were first dissolved in a 1:3 (v/v) methanol:chloroform solution. To make a lipid film, the organic solvents were removed completely under vacuum using a rotary evaporator with a Vacuubrand vacuum pump. The resulting lipid film was hydrated at 35 °C using Tris buffer (50 mM, pH 7.4). After hydration, the dispersion was sonicated for 15 min to promote the formation of smaller unilamellar vesicles. This was followed by the extrusion of lipid vesicles through a 100 nm pore diameter polycarbonate filter (>21 times) using an Avanti mini‐extruder fitted with two 1 mL airtight syringes. Immediately before the SAXS data collection, a peptoid solution with the adequate concentration for the target lipid:peptoid ratio was mixed 1:1 with the lipid solution (5 mg mL^−1) using a micropipette. SAXS experiments were performed at the automated BM29 bioSAXS beamline at the European Synchrotron Radiation Facility (ESRF) in Grenoble, France.^[ [47] ^] […] All experiments were conducted at 37 °C. The data set was calibrated to an absolute intensity scale using water as a primary standard. Samples (45 µL) were run through a capillary using the flow mode of the automated sample changer.^[ [48] ^] SAXS data was collected in ten successive frames of 0.5 s each to monitor radiation damage, and the data reduction was carried out using BioXTAS RAW program.^[ [49] ^]
All scattering models were implemented and fitted to the experimental SAXS data using the QtiSAS software.^[ [50] ^]

P. aeruginosa MDR-198 = assay type: cell-based
[4] = gram-positive pathogenic strain, mean of triplicates
[5] = SAXS, cylindrical α-helical bundle model, 5 mg mL^−1

Row | SMILES | Th S fluorescence (intracellular biomass aggregation) (E. coli ATCC 25922) | stability in human liver S9 fraction [1] | MIC E. faecalis KCTC 3511 (E. faecalis KCTC 3511; [4]) [µM] | MIC E. faecium KCTC 13225 (E. faecium KCTC 13225; [4]) [µM] | MIC S. typhimurium SL 1344 (S. typhimurium SL 1344; gram-negative pathogenic strain, mean of triplicates) [µM] | LC50 MRC-5 ([2]; MTS assay, 24 h exposure in DMEM, concentration killing 50% of cells) [µM] | MIC S. aureus MRSA C623 (S. aureus MRSA C623) [µM] | MIC E. coli ESBL 63103 (E. coli ESBL 63103) [µM] | MIC K. pneumonia ESBL 61962 (K. pneumonia ESBL 61962) [µM] | self-assembly state in aqueous solution ([3]; SAXS, 5 mg mL^−1) | fraction of dimers [3, 5] [%] | fraction of monomers [3, 5] [%] | fraction of trimers [3, 5] [%] | MIC E. faecalis KCTC 3511 (E. faecalis KCTC 3511; KCTC 3511) [µM] | MIC P. aeruginosa MDR-198 (P. aeruginosa MDR-198) [µM] | MIC E. faecium KCTC 13225 (E. faecium KCTC 13225; KCTC 13225) [µM] | MIC S. typhimurium SL 1344 (S. typhimurium SL 1344; SL 1344) [µM] | LC50 MRC-5 [2] [µM] | fraction of big clusters ([3]; SAXS fit, depending on concentration) | radius of gyration ([3]; SAXS, Tris buffer 50 mM pH 7.4, 37 °C, random Gaussian chain model) [Å]
1 | C[C@@H](c1ccccc1)N(CC(N)=O)C(=O)CN(C(=O)CN(CCCCN)C(=O)CN(C(=O)CN(C(=O)CN(CCCCN)C(=O)CN(C(=O)CN(C(=O)CN(CCCCN)C(=O)CN(C(=O)CN(C(=O)CNCCCCN)[C@@H](C)c1ccccc1)[C@@H](C)c1ccccc1)[C@@H](C)c1ccccc1)[C@@H](C)c1ccccc1)[C@@H](C)c1ccccc1)[C@@H](C)c1ccccc1)[C@@H](C)c1ccccc1 [peptoid 1, reference compound] (H-[Nlys][Nspe][Nspe][Nlys][Nspe][Nspe][Nlys][Nspe][Nspe][Nlys][Nspe][Nspe]-NH2) | enhanced Th S fluorescence | superior stability | 0.8 (≈ 1.46 µg/mL) | <0.8 | 25 (≈ 45.5 µg/mL) | 8.1 |  |  |  |  |  |  |  |  |  |  |  |  |  | 
2 | C[C@@H](c1ccccc1)N(CC(=O)N(CCCCN)CC(=O)N(CC(=O)N(CC(=O)N(CCCCN)CC(=O)N(CC(=O)N(CC(=O)N(CCCCN)CC(=O)N(CCc1c[nH]c2ccccc12)CC(=O)N(CCc1c[nH]c2ccccc12)CC(N)=O)[C@@H](C)c1ccccc1)[C@@H](C)c1ccccc1)[C@@H](C)c1ccccc1)[C@@H](C)c1ccccc1)C(=O)CN(C(=O)CNCCCCN)[C@@H](C)c1ccccc1 [peptoid 11] (H-[Nlys][Nspe][Nspe][Nlys][Nspe][Nspe][Nlys][Nspe][Nspe][Nlys][Gly(N(CH2)2(3-indolyl))][Gly(N(CH2)2(3-indolyl))]-NH2) |  |  |  |  |  |  | 3.1 to 6.3 | 3.1 to 6.3 | 6.3 to 12.5 | larger defined nanostructures | 10 | 30 | 60 | <0.8 | 6.3 to 12.5 | <0.8 | 25 (≈ 47.4 µg/mL) | 6.9 |  | 
3 | C[C@@H](c1ccccc1)N(CC(=O)N(CCCCN)CC(=O)N(CCc1c[nH]c2ccccc12)CC(=O)N(CCc1c[nH]c2ccccc12)CC(N)=O)C(=O)CN(CCCCN)C(=O)CN(CCCCN)C(=O)CN(C(=O)CN(C(=O)CN(CCCCN)C(=O)CN(C(=O)CN(C(=O)CNCCCCN)[C@@H](C)c1ccccc1)[C@@H](C)c1ccccc1)[C@@H](C)c1ccccc1)[C@@H](C)c1ccccc1 [peptoid 29] (H-[Nlys][Nspe][Nspe][Nlys][Nspe][Nspe][Nlys][Nlys][Nspe][Nlys][Gly(N(CH2)2(3-indolyl))][Gly(N(CH2)2(3-indolyl))]-NH2) | significantly increased emission | superior stability |  |  |  |  | 3.1 to 6.3 | ≥25 | >25 | remained monomeric and unstructured |  |  |  | 3.1 (≈ 5.78 µg/mL) | 6.3 to 12.5 | 1.6 (≈ 2.98 µg/mL) | 6.3 (≈ 11.7 µg/mL) |  | 0.003–0.008 | 10
